Source: publication PMC7366829 (Acta biomaterialia, 2020)

Assays:
MelBEc = MelBEc (Escherichia coli, UniProt P02921); test: Trp to D2G FRET; type: binding; conditions: 10 μM D2G; 23 °C; GNG-3,14 extract; active site
MelBSt = MelBSt (Salmonella enterica, UniProt P30878); test: Trp to D2G FRET; type: binding; conditions: 10 μM D2G; 23 °C; DDM or GNG-3,14 extract; active site
β2AR = β2AR (Homo sapiens, UniProt P07550); test: radioligand binding, G-50 column; conditions: 10 nM [3H]-DHA; pH 7.5; 100 mM NaCl; room temperature; antagonist; labelled compound
β2AR, sequence (P07550 whole entry): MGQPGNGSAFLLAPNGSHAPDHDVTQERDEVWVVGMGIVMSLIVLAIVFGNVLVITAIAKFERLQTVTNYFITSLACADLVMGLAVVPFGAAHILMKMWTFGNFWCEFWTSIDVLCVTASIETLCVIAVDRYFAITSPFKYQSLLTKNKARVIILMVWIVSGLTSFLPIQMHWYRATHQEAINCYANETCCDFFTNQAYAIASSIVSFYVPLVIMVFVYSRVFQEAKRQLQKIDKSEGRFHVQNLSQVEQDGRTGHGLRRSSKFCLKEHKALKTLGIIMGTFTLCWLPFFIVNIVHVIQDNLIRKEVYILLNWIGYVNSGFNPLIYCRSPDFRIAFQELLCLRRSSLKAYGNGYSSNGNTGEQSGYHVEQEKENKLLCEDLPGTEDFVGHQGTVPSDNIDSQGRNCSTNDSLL

MelBSt, sequence (P30878 whole entry): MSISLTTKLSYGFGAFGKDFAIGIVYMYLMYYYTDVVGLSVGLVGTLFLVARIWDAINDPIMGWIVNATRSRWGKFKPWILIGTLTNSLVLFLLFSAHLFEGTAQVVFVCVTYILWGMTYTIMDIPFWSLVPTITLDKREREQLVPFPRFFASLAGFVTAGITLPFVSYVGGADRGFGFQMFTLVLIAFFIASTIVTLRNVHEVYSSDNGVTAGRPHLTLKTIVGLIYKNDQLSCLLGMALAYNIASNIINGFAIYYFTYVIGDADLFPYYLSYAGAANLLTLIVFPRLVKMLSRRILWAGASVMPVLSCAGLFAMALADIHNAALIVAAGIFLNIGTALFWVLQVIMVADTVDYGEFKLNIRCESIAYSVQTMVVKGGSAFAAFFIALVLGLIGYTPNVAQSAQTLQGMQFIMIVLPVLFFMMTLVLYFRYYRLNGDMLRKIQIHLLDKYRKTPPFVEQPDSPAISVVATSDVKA
MelBEc, sequence (P02921 2-473): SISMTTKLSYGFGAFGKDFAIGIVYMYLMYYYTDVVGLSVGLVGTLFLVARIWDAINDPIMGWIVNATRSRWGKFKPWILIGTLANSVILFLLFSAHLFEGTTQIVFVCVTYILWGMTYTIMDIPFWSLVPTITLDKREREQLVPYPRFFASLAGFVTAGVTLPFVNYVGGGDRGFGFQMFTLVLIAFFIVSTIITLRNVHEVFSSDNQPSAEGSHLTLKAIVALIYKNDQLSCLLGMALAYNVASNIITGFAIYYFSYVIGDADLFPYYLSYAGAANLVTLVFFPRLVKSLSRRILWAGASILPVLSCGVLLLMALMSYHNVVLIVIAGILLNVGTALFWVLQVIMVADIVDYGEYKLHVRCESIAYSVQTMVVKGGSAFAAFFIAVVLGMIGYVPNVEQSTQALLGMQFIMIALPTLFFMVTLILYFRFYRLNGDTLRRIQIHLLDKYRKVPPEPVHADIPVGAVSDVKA

| SMILES | Trp to D2G FRET (MelBEc) | Trp to D2G FRET (MelBSt) | radioligand binding, G-50 column (β2AR) |
| --- | --- | --- | --- |
| CN(C)c1cccc2c(S(=O)(=O)NCCS[C@@H]3O[C@H](CO)[C@H](O)[C@H](O)[C@H]3O)cccc12 [D2G, 2’-(N-Dansyl)aminoalkyl-1-thio-β-D-galactopyranoside] | GNG-3,14-extracted MelBEc was functional under the same conditions | DDM or GNG-3,14-extracted MelBSt responded to addition of D^2G and melibiose | – |
| CCCc1ccccc1OCC(O)CNC(C)C (stereo not drawn) [[3H]-dihydroalprenolol] | – | – | ligand binding assay using a radio-active antagonist ([^3H]-DHA) |
